Measurements from PMC6956804, “Potent antibacterial activity of MSI-1 derived from the magainin 2 peptide against drug-resistant bacteria” (Theranostics, 2020).
≈ marks a conversion by molar mass, not a printed value. Peptide text beside a SMILES is read from it.

How the values were obtained:
C57BL/6 mice = test: Acute toxicity in mice; assay type: in vivo; conditions: intraperitoneal
Protocol: C57BL/6 mice (n=6/group) were intraperitoneally injected with MSI-1 (0, 10, 20, 40, 80 and 100 mg/kg/body weight, respectively). Animals were inspected for adverse effects for 30 min, and survival was monitored for 12 h thereafter. The toxicity severity was classified as Malik U et al previously described.

murine spleen cells = test: Cytotoxicity, MTT; assay type: cell-based; conditions: 48 h
Protocol: The cytotoxicity of peptides towards murine spleen cells (obtained from healthy murine with aseptic technique) and other eukaryotic cells (HaCaT, GES-1, human L02, B16F10, A549, H460) were determined by routine MTT method. Cells were incubated with serially diluted peptides (final concentrations: 1.563, 3.125, 6.25, 12.5, 25, 50, 100 and 200 μM) for 48 h.

[1] = tested on: MRSA, Methicillin-resistant clinical isolates; assay type: cell-based, Staphylococcus aureus
Protocol: (§1) Bacterial strains were purchased from the American Type Culture Collection (ATCC). All clinical strains were isolated from human clinical specimens by the Medical Laboratory Center of Zhongda Hospital (Nanjing, Jiangsu, China). Ndm-1, tem-1, ctx-m-1, shv-1 -carrying bacteria were constructed as previously described. The recombinant bacteria carrying drug-resistant genes were prepared in LB nutrient and induced by IPTG (1 mM) for 4 h before text. Other bacterial strains were respectively prepared in MHB and Columbia Blood Agar Base.
(§2) A standard micro-broth serial dilution assay was used to measure MIC of peptides. MIC was obtained by a microplate reader at 600 nm. MBC was determined as previously described.

[2] = tested on: E. coli, Penicillin-, Imipenem- and Ceftazidime- resistant clinical isolates; assay type: cell-based
Protocol: as §1, §2

[3] = tested on: S. pneumoniae, Amoxicillin-, Cephalexin- and Levofloxacin- resistant clinical isolates; assay type: cell-based
Protocol: as §1, §2

[4] = tested on: E. coli BL21(DE3)-NDM-1 (ndm-1-carrying recombinant E. coli); assay type: cell-based
Protocol: as §1, §2

[5] = tested on: P. aeruginosa, Penicillin-, Imipenem- and Ceftazidime- resistant clinical isolates; assay type: cell-based
Protocol: as §1, §2

[6] = tested on: S. pyogenes, Penicillin-, Erythromycin- and Levofloxacin- resistant clinical isolates; assay type: cell-based
Protocol: as §1, §2

Helicobacterpylori SS1 = assay type: cell-based; conditions: Helicobacterpylori SS1
Protocol: as §1, §2

[7] = tested on: K. pneumonia, Penicillin-, Imipenem- and Ceftazidime- resistant clinical isolates; assay type: cell-based
Protocol: as §1, §2

[8] = tested on: S. epidermidis, Amoxicillin-, Cephalexin- and Levofloxacin- resistant clinical isolates; assay type: cell-based
Protocol: as §1, §2

[9] = tested on: S. aureus, Amoxicillin-, Cephalexin- and Levofloxacin- resistant clinical isolates; assay type: cell-based
Protocol: as §1, §2

CC[C@H](C)[C@H](NC(=O)CN)C(=O)N[C@@H](Cc1c[nH]c2ccccc12)C(=O)N[C@@H](CCCCN)C(=O)N[C@@H](Cc1ccccc1)C(=O)N[C@@H](CC(C)C)C(=O)N[C@@H](CCCCN)C(=O)N[C@@H](CCCCN)C(=O)N[C@@H](C)C(=O)N[C@@H](CCCCN)C(=O)N[C@@H](CCCCN)C(=O)N[C@@H](Cc1ccccc1)C(=O)N[C@@H](Cc1c[nH]c2ccccc12)C(N)=O [MSI-3] (H-GIWKFLKKAKKFW-NH2)
deaths (C57BL/6 mice; 100 mg/kg): some of the mice in the MSI-3-treated group died | adverse effects at approximately 5 min post injection (C57BL/6 mice; dose of peptide above 40 mg/kg, n=6/group): displayed narrowing of the eyes, one mouse was crouching and cuddling, and the other mouse showed convulsions | effect on the survival of mouse spleen cells compared with the parent peptide (murine spleen cells): significantly higher

CC[C@H](C)[C@H](NC(=O)CN)C(=O)NCC(=O)N[C@@H](C)C(=O)N[C@H](C(=O)N[C@@H](CC(C)C)C(=O)N[C@@H](CCCCN)C(=O)N[C@H](C(=O)N[C@@H](CC(C)C)C(=O)N[C@H](C(=O)N[C@H](C(=O)NCC(=O)N[C@@H](CC(C)C)C(=O)N1CCC[C@H]1C(=O)N[C@@H](C)C(=O)N[C@@H](CC(C)C)C(=O)N[C@H](C(=O)N[C@@H](CO)C(=O)N[C@@H](Cc1c[nH]c2ccccc12)C(=O)N[C@H](C(=O)N[C@@H](CCCCN)C(=O)N[C@@H](CCCNC(=N)N)C(=O)N[C@@H](CCCCN)C(=O)N[C@@H](CCCNC(=N)N)C(=O)N[C@@H](CCC(N)=O)C(=O)N[C@@H](CCC(N)=O)C(N)=O)[C@@H](C)CC)[C@@H](C)CC)[C@@H](C)O)[C@@H](C)O)C(C)C)C(C)C [Melittin]
MBC [1]: 8 µg/mL (≈ 2.81 µM) | MIC [1]: 4 µg/mL (≈ 1.41 µM) | MBC [2]: 8 µg/mL (≈ 2.81 µM) | MIC [2]: 4 µg/mL (≈ 1.41 µM) | MBC [3]: 16 µg/mL (≈ 5.62 µM) | MIC [3]: 8 µg/mL (≈ 2.81 µM) | MBC [4]: 8 µg/mL (≈ 2.81 µM) | MIC [4]: 4 µg/mL (≈ 1.41 µM) | MBC [5]: 8 µg/mL (≈ 2.81 µM) | MIC [5]: 4 µg/mL (≈ 1.41 µM) | MBC [6]: 16 µg/mL (≈ 5.62 µM) | MIC [6]: 8 µg/mL (≈ 2.81 µM) | MBC (Helicobacterpylori SS1): 16 µg/mL (≈ 5.62 µM) | MIC (Helicobacterpylori SS1): 8 µg/mL (≈ 2.81 µM) | MBC [7]: 16 µg/mL (≈ 5.62 µM) | MIC [7]: 8 µg/mL (≈ 2.81 µM) | MBC [8]: 16 µg/mL (≈ 5.62 µM) | MIC [8]: 4 µg/mL (≈ 1.41 µM) | MBC [9]: 32 µg/mL (≈ 11.2 µM) | MIC [9]: 8 µg/mL (≈ 2.81 µM)
